The values below come from patent publication USRE47193E1, “Selectively substituted quinoline compounds” (EISAI R&D MANAGEMENT CO., LTD., priority 2013, dated 2019).

By IC50 is commonly meant the concentration that inhibits the measured activity by half.

One assay relates to Human TLR7/8. As to the kind of experiment: Human PBMC cell-based assay, TLR7/8 stimulus (RNA-Ig), cytokine ELISA. The following applies: primary human PBMC assay, TLR7/8 potency; ligand not given; read-out: Human PBMCs IC50. The method in brief: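 Healthy-donor human PBMC, 2×10^5 cells/well (1×10^5 in later assay), pre-treated 30 min with compound (0.1% DMSO). Stimulated 20 h at 37 °C with RNA-Ig: 26-mer U1 snRNA stem loop IV phosphorothioate RNA at 2.5 μM plus anti-ssDNA antibody (1:25 or 1 ug/ml). Supernatant cytokines by ELISA.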
(In general: In an ELISA, binding on a coated surface is turned into a signal by an enzyme label.)

A further assay deals with Mouse Splenocytes. The assay can be described thus: Mouse spleen cell-based assay (R848, IL-6 ELISA). The following applies: BALB/c spleen cells, 370 nM R848. As to the method: Mouse Spleen cell-based assay. Spleens were harvested from female BALB/c mice (Jackson Labs, Bar Harbor, Me.) euthanized by CO2. A single cell suspension was obtained by passing spleens through a 40 μm an nylon cell strainer. Cells were washed twice with 50 ml PBS (Mediatech, Inc., Manassas, Va.) and red blood cells were lysed in 5 ml RBC Lysis buffer (eBioscience, Inc., San Diego, Calif.) for 5 minutes at room temperature. Cells were washed twice more in PBS and finally resuspended in supplemented RPMI-1640 at 2.5×10^6 cells/ml. Cells were plated at 100 μl/well (2.5×10^5 cells/well) in 96-well tissue culture treated plates (Falcon). Serial dilutions of compounds solubilized in 100% DMSO were added in triplicate to cells to yield a final concentration of 0.1% DMSO. Cells were incubated with compound for 30 minutes at 37° C., 5% CO2 before adding 100 μl/well of 740 nM R848 (Resiquimod; GLSynthesis, Worcester, Mass.) in complete media for a final concentration of 370 nM R848. Cells were incubated for 20 hours at 37° C., 5% CO2. Culture supernatants were collected, and levels of IL-6 were assessed by standard ELISA procedure according to the manufacturer's recommended protocol (BD Biosciences, Inc., San Diego, Calif.).

In the next assay the target is T1, mouse TLR7 (Mus musculus, UniProt P58681).
T1 sequence (P58681 27-1050): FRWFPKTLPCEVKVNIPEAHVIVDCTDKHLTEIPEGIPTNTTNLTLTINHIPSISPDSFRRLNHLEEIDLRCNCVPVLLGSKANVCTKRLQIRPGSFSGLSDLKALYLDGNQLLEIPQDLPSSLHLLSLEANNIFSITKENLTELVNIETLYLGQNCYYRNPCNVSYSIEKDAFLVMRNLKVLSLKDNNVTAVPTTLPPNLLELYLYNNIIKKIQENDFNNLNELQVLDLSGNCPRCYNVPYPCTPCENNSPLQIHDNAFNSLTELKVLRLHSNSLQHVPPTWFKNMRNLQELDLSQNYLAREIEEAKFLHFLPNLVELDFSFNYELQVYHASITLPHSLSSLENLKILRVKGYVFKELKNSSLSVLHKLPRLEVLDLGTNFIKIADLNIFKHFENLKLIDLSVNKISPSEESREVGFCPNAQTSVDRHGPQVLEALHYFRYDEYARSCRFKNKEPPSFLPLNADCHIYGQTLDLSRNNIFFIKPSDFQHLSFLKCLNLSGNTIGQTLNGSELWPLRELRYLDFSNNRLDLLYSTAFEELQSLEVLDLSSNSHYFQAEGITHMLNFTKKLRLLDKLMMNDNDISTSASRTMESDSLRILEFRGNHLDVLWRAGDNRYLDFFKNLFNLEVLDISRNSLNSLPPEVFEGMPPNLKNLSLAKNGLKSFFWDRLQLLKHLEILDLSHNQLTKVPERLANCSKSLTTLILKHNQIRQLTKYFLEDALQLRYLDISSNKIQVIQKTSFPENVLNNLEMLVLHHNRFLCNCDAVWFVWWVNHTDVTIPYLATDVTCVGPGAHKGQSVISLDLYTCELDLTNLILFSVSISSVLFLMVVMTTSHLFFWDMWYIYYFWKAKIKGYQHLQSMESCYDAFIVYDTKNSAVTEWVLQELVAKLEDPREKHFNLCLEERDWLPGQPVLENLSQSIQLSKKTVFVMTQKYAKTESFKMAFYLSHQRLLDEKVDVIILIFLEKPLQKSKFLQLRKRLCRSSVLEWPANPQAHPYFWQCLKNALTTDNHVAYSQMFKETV
As to the kind of experiment: Short-term in vivo (STIV) assay: oral dosing, R848 s.c., plasma IL-6. More on the design: female BALB/c mice (Jackson Labs, Bar Harbor, Me.) were dosed by oral gavage; tissue Jackson Labs; host or cells: living female BALB/c mice; plasma IL-6 after s.c. R848. The method in brief: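 Female BALB/c mice (6–8 weeks) dosed orally with compound in 0.5% aqueous methyl-cellulose at 33, 100 or 300 mg/kg; at various times afterwards given 15 ug R848 s.c. to stimulate TLR7. Plasma IL-6 measured by ELISA to gauge potency and duration of action.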

In the case of `CC1CN(c2ccc(C#N)c3ncccc23)CC(CN2CCNCC2C)O1` (centres unmarked) [ER-887268], the IC50 in the assay on Human TLR7/8 came to 5 nM; in the assay with Mouse Splenocytes (Mus musculus, Splenocyte) it was 2120 nM. The “% Suppression vs. Vehicle” value is 80% at mouse TLR7 (6 h, 11 mg/kg); 98% on mouse TLR7 (6 h, 33 mg/kg); 99% at mouse TLR7 (6 h, 100 mg/kg); 25% at mouse TLR7 (19 h, 11 mg/kg); 63% at mouse TLR7 (19 h, 33 mg/kg); 95% at mouse TLR7 (19 h, 100 mg/kg).
Take `C[C@@H]1CN(c2ccc(C#N)c3ncccc23)C[C@H](CN2CCC(N)CC2)O1` [ER-888070]: the IC50 with Human TLR7/8 worked out at 3 nM; in the assay on Mouse Splenocytes (Mus musculus, Splenocyte) it was 76 nM. The “% Suppression vs. Vehicle” value is on record as 88% at mouse TLR7 (6 h, 33 mg/kg); 100% at mouse TLR7 (6 h, 100 mg/kg); 100% on mouse TLR7 (6 h, 300 mg/kg); 70% at mouse TLR7 (19 h, 33 mg/kg); 90% on mouse TLR7 (19 h, 100 mg/kg); 99% on mouse TLR7 (19 h, 300 mg/kg).
For the compound `C[C@@H]1CN(c2ccc(C#N)c3ncccc23)C[C@H](CN2CCC(N3CCCC3)CC2)O1` [ER-888480], the values for the IC50 in the assay with Human TLR7/8 and with Mouse Splenocytes were 1 nM and 87 nM, respectively. Also, the “% Suppression vs. Vehicle” value came to 85% on mouse TLR7 (6 h, 11 mg/kg); 100% on mouse TLR7 (6 h, 33 mg/kg); 100% on mouse TLR7 (6 h, 100 mg/kg); 63% at mouse TLR7 (19 h, 11 mg/kg); 89% on mouse TLR7 (19 h, 33 mg/kg); 98% at mouse TLR7 (19 h, 100 mg/kg).
Regarding `CC1CN(c2ccc(C#N)c3ncccc23)CC(CN2CC(N3CCCC3)C2)O1` (centres unmarked) [ER-889469], the IC50 with Human TLR7/8 was found to be 13 nM; in the assay on Mouse Splenocytes (Mus musculus, Splenocyte) it was 97 nM. The “% Suppression vs. Vehicle” value came to 100% on mouse TLR7 (3 h, 33 mg/kg); 100% on mouse TLR7 (3 h, 100 mg/kg); 100% on mouse TLR7 (6 h, 33 mg/kg); 100% on mouse TLR7 (6 h, 100 mg/kg); 73% at mouse TLR7 (19 h, 100 mg/kg).
In the case of `CC1CN(c2ccc(C#N)c3ncccc23)CC(CN2CC(N3CCCCC3)C2)O1` (centres unmarked) [ER-889470], the IC50 with Human TLR7/8 was 12 nM; with Mouse Splenocytes (Mus musculus, Splenocyte) it was 152 nM. The “% Suppression vs. Vehicle” value at mouse TLR7 (3 h, 33 mg/kg) is reported as 100%; on mouse TLR7 (3 h, 100 mg/kg) it was 98%; at mouse TLR7 (6 h, 33 mg/kg), 96%; on mouse TLR7 (6 h, 100 mg/kg), 100%; at mouse TLR7 (19 h, 100 mg/kg), 78%.
`C[C@@H]1CN(c2ccc(C#N)c3ncccc23)C[C@H](CN2CCCN(C)CC2)O1` [ER-889601]: half-maximal inhibition with Mouse Splenocytes (IC50) required 179 nM. Further, the “% Suppression vs. Vehicle” value on mouse TLR7 (3 h, 100 mg/kg) is 96%; on mouse TLR7 (6 h, 33 mg/kg), 95%; at mouse TLR7 (6 h, 100 mg/kg), 90%; on mouse TLR7 (19 h, 100 mg/kg), 96%.
As to `CC1CN(c2ccc(C#N)c3ncccc23)CC(CN2CCC(N3CCOCC3)CC2)O1` (centres unmarked) [ER-890093], the IC50 in the assay with Human TLR7/8 came out at 22 nM; in the assay with Mouse Splenocytes (Mus musculus, Splenocyte), 88 nM. The “% Suppression vs. Vehicle” value at mouse TLR7 (3 h, 100 mg/kg) came out at 92%; at mouse TLR7 (6 h, 33 mg/kg), 92%; at mouse TLR7 (6 h, 100 mg/kg), 95%; at mouse TLR7 (13 h, 33 mg/kg), 98%; on mouse TLR7 (13 h, 100 mg/kg), 100%.
`CC1CN(c2ccc(C#N)c3ncccc23)CC(CN2CCC(N3CCCCC3)C2)O1.Cl.Cl` (centres unmarked) [ER-890311] came in with an IC50 in the assay with Mouse Splenocytes of 428 nM. The “% Suppression vs. Vehicle” value stood at 88% on mouse TLR7 (3 h, 33 mg/kg); 0% on mouse TLR7 (19 h, 3.67 mg/kg); 0% at mouse TLR7 (19 h, 11 mg/kg); 0% at mouse TLR7 (19 h, 33 mg/kg).
Consider `C[C@@H]1CN(c2ccc(C#N)c3ncccc23)C[C@H](CN2CCN(C)[C@@H](C)C2)O1` [ER-890831], for which the IC50 with Human TLR7/8 is 1 nM; in the assay with Mouse Splenocytes, 170 nM.
Turning to `C[C@@H]1CN(c2ccc(C#N)c3ncccc23)C[C@H](CN2CC[C@H](N3CCCC3)C2)O1` [ER-893881], the IC50 was 9 nM with Human TLR7/8 and 270 nM in the assay with Mouse Splenocytes (Mus musculus, Splenocyte). In addition, the “% Suppression vs. Vehicle” value at mouse TLR7 (3 h, 33 mg/kg) came out at 95%; at mouse TLR7 (6 h, 33 mg/kg) it was 82%; at mouse TLR7 (6 h, 100 mg/kg) it was 99%; on mouse TLR7 (13 h, 33 mg/kg), 0%; on mouse TLR7 (13 h, 100 mg/kg), 19%.
In the case of `CC1CN(c2ccc(C#N)c3ncccc23)CC(CN2CCC(NS(C)(=O)=O)CC2)O1` (centres unmarked) [ER-893948], the IC50 is 150 nM with Human TLR7/8 and 420 nM with Mouse Splenocytes (Mus musculus, Splenocyte).
On the same counts, the results for `CC(=O)NC1CN(C[C@H]2CN(c3ccc(C#N)c4ncccc34)C[C@@H](C)O2)C1` [ER-894152] are 175 nM and 660 nM.
`C[C@@H]1CN(c2ccc(C#N)c3ncccc23)C[C@H](CN2CCNC(C)(C)C2)O1` [ER-894655]: the IC50 in the assay with Human TLR7/8 stood at 5 nM; with Mouse Splenocytes (Mus musculus, Splenocyte), 84 nM.
On to `CC1CN(c2ccc(C#N)c3ncccc23)CC(CN2CCN(C)C(C)(C)C2)O1` (centres unmarked) [ER-894656], for which the IC50 in the assay with Human TLR7/8 was 7 nM; in the assay with Mouse Splenocytes (Mus musculus, Splenocyte), 23 nM.
In the case of `CCNC(=O)C1CCN(CC2CN(c3ccc(C#N)c4ncccc34)CC(C)O2)CC1` (centres unmarked) [ER-895204], the IC50 with Human TLR7/8 came to 23 nM; in the assay on Mouse Splenocytes (Mus musculus, Splenocyte), 51 nM. The “% Suppression vs. Vehicle” value at mouse TLR7 (6 h, 33 mg/kg) is 98%; at mouse TLR7 (13 h, 33 mg/kg), 22%; on mouse TLR7 (13 h, 100 mg/kg) it was 43%; at mouse TLR7 (13 h, 300 mg/kg), 99%; at mouse TLR7 (24 h, 33 mg/kg), 39%; at mouse TLR7 (24 h, 100 mg/kg), 39%. In addition, the “% Suppression vs. Vehicle” value at mouse TLR7 (24 h, 300 mg/kg) is 78%.
On to `CC1CN(c2ccc(C#N)c3ncccc23)CC(COc2ncccn2)O1` (centres unmarked) [ER-895325], for which the half-inhibitory concentration (IC50) with Human TLR7/8 turned out to be 26 nM; with Mouse Splenocytes (Mus musculus, Splenocyte), 120 nM.
